According to ChEMBL document CHEMBL4396916, “Novel potent substituted 4-amino-2-thiopyrimidines as dual VEGFR-2 and BRAF kinase inhibitors” (Eur J Med Chem, 2019):

How the values were obtained:
[1] = target: Vascular endothelial growth factor receptor 2 (Homo sapiens, UniProt P35968); experiment: Inhibition of human N-terminal GST tagged VEGFR-2 expressed in baculovirus infected Sf9 cells using poly (Glu,Tyr) 4:1 as substrate in presence of ATP by Kinase-Glo luminescence assay
[2] = target: Serine/threonine-protein kinase B-raf (Homo sapiens, UniProt P15056); experiment: Inhibition of human wild type BRAF by Kinase-Glo luminescence assay
CCRF-CEM = experiment: Growth inhibition of human CCRF-CEM cells at 10 uM incubated for 48 hrs by sulforhodamine B assay relative to control; type: functional; details: read-out: GI
K562 = experiment: Growth inhibition of human K562 cells at 10 uM incubated for 48 hrs by sulforhodamine B assay relative to control; type: functional; details: K562, 48 h, read-out: GI
MOLT-4 = experiment: Growth inhibition of human MOLT4 cells at 10 uM incubated for 48 hrs by sulforhodamine B assay relative to control; type: functional; details: MOLT-4, 48 h, read-out: GI
RPMI-8226 = experiment: Growth inhibition of human RPMI8226 cells at 10 uM incubated for 48 hrs by sulforhodamine B assay relative to control; type: functional; details: RPMI-8226, 48 h, read-out: GI
SR = experiment: Growth inhibition of human SR cells at 10 uM incubated for 48 hrs by sulforhodamine B assay relative to control; type: functional; details: read-out: GI
A549 = experiment: Growth inhibition of human A549/ATCC cells at 10 uM incubated for 48 hrs by sulforhodamine B assay relative to control; type: functional; details: A549, 48 h, read-out: GI
EKVX = experiment: Growth inhibition of human EKVX cells at 10 uM incubated for 48 hrs by sulforhodamine B assay relative to control; type: functional; details: read-out: GI
NCI-H226 = experiment: Growth inhibition of human NCI-H226 cells at 10 uM incubated for 48 hrs by sulforhodamine B assay relative to control; type: functional; details: NCI-H226, 48 h, read-out: GI
NCI-H23 = experiment: Growth inhibition of human NCI-H23 cells at 10 uM incubated for 48 hrs by sulforhodamine B assay relative to control; type: functional; details: NCI-H23, 48 h, read-out: GI
NCI-H460 = experiment: Growth inhibition of human NCI-H460 cells at 10 uM incubated for 48 hrs by sulforhodamine B assay relative to control; type: functional; details: NCI-H460, 48 h, read-out: GI
NCI-H522 = experiment: Growth inhibition of human NCI-H522 cells at 10 uM incubated for 48 hrs by sulforhodamine B assay relative to control; type: functional; details: NCI-H522, 48 h, read-out: GI
HCT-116 = experiment: Growth inhibition of human HCT116 cells at 10 uM incubated for 48 hrs by sulforhodamine B assay relative to control; type: functional; details: HCT-116, 48 h, read-out: GI
HCT-15 = experiment: Growth inhibition of human HCT15 cells at 10 uM incubated for 48 hrs by sulforhodamine B assay relative to control; type: functional; details: HCT-15, 48 h, read-out: GI
HT-29 = experiment: Growth inhibition of human HT-29 cells at 10 uM incubated for 48 hrs by sulforhodamine B assay relative to control; type: functional; details: HT-29, 48 h, read-out: GI
KM12 = experiment: Growth inhibition of human KM12 cells at 10 uM incubated for 48 hrs by sulforhodamine B assay relative to control; type: functional; details: KM12, 48 h, read-out: GI
SF-295 = experiment: Growth inhibition of human SF295 cells at 10 uM incubated for 48 hrs by sulforhodamine B assay relative to control; type: functional; details: SF-295, 48 h, read-out: GI
SF-539 = experiment: Growth inhibition of human SF539 cells at 10 uM incubated for 48 hrs by sulforhodamine B assay relative to control; type: functional; details: SF-539, 48 h, read-out: GI
LOX IMVI = experiment: Growth inhibition of human LOXIMVI cells at 10 uM incubated for 48 hrs by sulforhodamine B assay relative to control; type: functional; details: read-out: GI
M14 = experiment: Growth inhibition of human M14 cells at 10 uM incubated for 48 hrs by sulforhodamine B assay relative to control; type: functional; details: M14, 48 h, read-out: GI
MDA-MB-435 = experiment: Growth inhibition of human MDA-MB-435 cells at 10 uM incubated for 48 hrs by sulforhodamine B assay relative to control; type: functional; details: MDA-MB-435, 48 h, read-out: GI
SK-MEL-28 = experiment: Growth inhibition of human SK-MEL-28 cells at 10 uM incubated for 48 hrs by sulforhodamine B assay relative to control; type: functional; details: SK-MEL-28, 48 h, read-out: GI
SK-MEL-5 = experiment: Growth inhibition of human SK-MEL-5 cells at 10 uM incubated for 48 hrs by sulforhodamine B assay relative to control; type: functional; details: SK-MEL-5, 48 h, read-out: GI
UACC-257 = experiment: Growth inhibition of human UACC257 cells at 10 uM incubated for 48 hrs by sulforhodamine B assay relative to control; type: functional; details: UACC-257, 48 h, read-out: GI
UACC-62 = experiment: Growth inhibition of human UACC62 cells at 10 uM incubated for 48 hrs by sulforhodamine B assay relative to control; type: functional; details: UACC-62, 48 h, read-out: GI
IGROV-1 = experiment: Growth inhibition of human IGROV1 cells at 10 uM incubated for 48 hrs by sulforhodamine B assay relative to control; type: functional; details: IGROV-1, 48 h, read-out: GI
OVCAR-4 = experiment: Growth inhibition of human OVCAR4 cells at 10 uM incubated for 48 hrs by sulforhodamine B assay relative to control; type: functional; details: OVCAR-4, 48 h, read-out: GI
OVCAR-8 = experiment: Growth inhibition of human OVCAR8 cells at 10 uM incubated for 48 hrs by sulforhodamine B assay relative to control; type: functional; details: OVCAR-8, 48 h, read-out: GI
NCI/ADR-RES = experiment: Growth inhibition of human NCI/ADR-RES cells at 10 uM incubated for 48 hrs by sulforhodamine B assay relative to control; type: functional; details: read-out: GI
A498 = experiment: Growth inhibition of human A498 cells at 10 uM incubated for 48 hrs by sulforhodamine B assay relative to control; type: functional; details: A498, 48 h, read-out: GI
ACHN = experiment: Growth inhibition of human ACHN cells at 10 uM incubated for 48 hrs by sulforhodamine B assay relative to control; type: functional; details: read-out: GI
CAKI-1 = experiment: Growth inhibition of human Caki1 cells at 10 uM incubated for 48 hrs by sulforhodamine B assay relative to control; type: functional; details: CAKI-1, 48 h, read-out: GI
SN12C = experiment: Growth inhibition of human SN12C cells at 10 uM incubated for 48 hrs by sulforhodamine B assay relative to control; type: functional; details: read-out: GI
UO-31 = experiment: Growth inhibition of human UO31 cells at 10 uM incubated for 48 hrs by sulforhodamine B assay relative to control; type: functional; details: UO-31, 48 h, read-out: GI
PC-3 = experiment: Growth inhibition of human PC3 cells at 10 uM incubated for 48 hrs by sulforhodamine B assay relative to control; type: functional; details: PC-3, 48 h, read-out: GI
DU-145 = experiment: Growth inhibition of human DU145 cells at 10 uM incubated for 48 hrs by sulforhodamine B assay relative to control; type: functional; details: DU-145, 48 h, read-out: GI
MCF7 [3] = experiment: Growth inhibition of human MCF7 cells at 10 uM incubated for 48 hrs by sulforhodamine B assay relative to control; type: functional; details: MCF7, 48 h, read-out: GI
MDA-MB-231 = experiment: Growth inhibition of human MDA-MB-231 cells at 10 uM incubated for 48 hrs by sulforhodamine B assay relative to control; type: functional; details: MDA-MB-231, 48 h, read-out: GI
BT-549 = experiment: Growth inhibition of human BT549 cells at 10 uM incubated for 48 hrs by sulforhodamine B assay relative to control; type: functional; details: BT-549, 48 h, read-out: GI
T47D [4] = experiment: Growth inhibition of human T47D cells at 10 uM incubated for 48 hrs by sulforhodamine B assay relative to control; type: functional; details: read-out: GI
MDA-MB-468 = experiment: Growth inhibition of human MDA-MB-468 cells at 10 uM incubated for 48 hrs by sulforhodamine B assay relative to control; type: functional; details: MDA-MB-468, 48 h, read-out: GI
MCF7 [5] = experiment: Cytotoxicity against human MCF7 cells expressing VEGFR2 and wild type BRAF measured after 48 hrs by sulforhodamine B assay; type: functional, cell-based; details: MCF7, 48 h
T47D [6] = experiment: Cytotoxicity against human T47D cells expressing wild type BRAF measured after 48 hrs by sulforhodamine B assay; type: functional, cell-based
MCF7 [7] = experiment: Inhibition of VEGFR2 level in human MCF7 cells at 10 uM measured after 48 hrs by ELISA relative to control; type: functional; details: MCF7, 48 h

Chain of Serine/threonine-protein kinase B-raf (P15056 whole entry): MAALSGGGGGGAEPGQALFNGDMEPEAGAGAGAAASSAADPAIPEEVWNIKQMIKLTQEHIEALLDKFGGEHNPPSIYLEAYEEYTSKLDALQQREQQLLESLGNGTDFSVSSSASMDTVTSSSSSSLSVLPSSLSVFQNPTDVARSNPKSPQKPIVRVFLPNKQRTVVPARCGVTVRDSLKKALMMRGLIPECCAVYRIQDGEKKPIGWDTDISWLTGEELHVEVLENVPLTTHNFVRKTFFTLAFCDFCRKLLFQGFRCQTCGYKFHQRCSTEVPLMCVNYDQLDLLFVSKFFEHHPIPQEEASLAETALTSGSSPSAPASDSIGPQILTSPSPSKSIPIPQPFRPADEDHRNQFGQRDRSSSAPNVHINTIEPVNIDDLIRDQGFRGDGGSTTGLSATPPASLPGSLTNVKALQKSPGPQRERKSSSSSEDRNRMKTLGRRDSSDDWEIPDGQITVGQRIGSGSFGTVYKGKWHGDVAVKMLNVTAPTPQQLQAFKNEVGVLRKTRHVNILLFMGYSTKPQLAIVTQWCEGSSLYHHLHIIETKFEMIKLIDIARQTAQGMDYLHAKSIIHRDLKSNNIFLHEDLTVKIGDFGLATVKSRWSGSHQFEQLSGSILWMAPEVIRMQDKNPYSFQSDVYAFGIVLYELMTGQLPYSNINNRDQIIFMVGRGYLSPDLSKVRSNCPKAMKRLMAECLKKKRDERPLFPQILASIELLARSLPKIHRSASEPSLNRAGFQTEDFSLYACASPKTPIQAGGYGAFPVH
Chain of Vascular endothelial growth factor receptor 2 (P35968 whole entry): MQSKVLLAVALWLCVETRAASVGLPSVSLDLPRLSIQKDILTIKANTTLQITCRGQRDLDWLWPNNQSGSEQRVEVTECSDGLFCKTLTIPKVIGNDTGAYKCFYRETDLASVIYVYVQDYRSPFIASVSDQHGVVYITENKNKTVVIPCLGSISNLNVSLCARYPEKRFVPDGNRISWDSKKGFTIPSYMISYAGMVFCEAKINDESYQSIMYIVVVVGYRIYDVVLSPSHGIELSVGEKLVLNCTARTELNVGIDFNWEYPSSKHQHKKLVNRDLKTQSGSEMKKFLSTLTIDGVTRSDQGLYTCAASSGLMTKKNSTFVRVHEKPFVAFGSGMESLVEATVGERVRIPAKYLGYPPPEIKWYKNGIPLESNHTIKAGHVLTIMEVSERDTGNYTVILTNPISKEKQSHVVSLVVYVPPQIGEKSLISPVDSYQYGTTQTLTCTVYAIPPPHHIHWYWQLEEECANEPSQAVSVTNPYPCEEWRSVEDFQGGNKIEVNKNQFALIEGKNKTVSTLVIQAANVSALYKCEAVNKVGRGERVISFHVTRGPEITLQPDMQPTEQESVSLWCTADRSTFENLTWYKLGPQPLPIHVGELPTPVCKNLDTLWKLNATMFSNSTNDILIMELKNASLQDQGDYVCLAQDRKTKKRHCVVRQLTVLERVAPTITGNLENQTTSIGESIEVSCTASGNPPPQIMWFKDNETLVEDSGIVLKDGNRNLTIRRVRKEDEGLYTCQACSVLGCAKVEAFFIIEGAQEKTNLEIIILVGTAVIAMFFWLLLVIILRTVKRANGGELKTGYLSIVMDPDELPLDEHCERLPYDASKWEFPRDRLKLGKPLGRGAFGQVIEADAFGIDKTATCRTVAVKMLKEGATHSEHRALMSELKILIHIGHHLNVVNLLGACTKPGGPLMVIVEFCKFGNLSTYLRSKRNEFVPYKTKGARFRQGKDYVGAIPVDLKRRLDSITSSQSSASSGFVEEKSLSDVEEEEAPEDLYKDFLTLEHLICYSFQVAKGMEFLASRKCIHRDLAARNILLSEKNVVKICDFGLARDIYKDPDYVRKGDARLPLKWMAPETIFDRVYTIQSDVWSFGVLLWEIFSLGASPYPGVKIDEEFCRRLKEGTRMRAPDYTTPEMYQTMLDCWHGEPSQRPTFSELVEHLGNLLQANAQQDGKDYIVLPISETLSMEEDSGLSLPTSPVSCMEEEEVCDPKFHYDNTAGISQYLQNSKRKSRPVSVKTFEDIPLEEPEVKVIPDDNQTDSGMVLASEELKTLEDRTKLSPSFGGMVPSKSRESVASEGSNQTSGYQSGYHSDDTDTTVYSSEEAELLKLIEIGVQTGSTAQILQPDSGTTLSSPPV

CCOC(=O)c1ccc(Nc2ccnc(SCC(=O)c3ccc([N+](=O)[O-])cc3)n2)cc1 was tested, and the IC50 [1] was 0.41 µM, the IC50 [2] was 0.22 µM and the inhibition of growth at 10 µM (CCRF-CEM) was 49%. For the same compound, the inhibition of growth at 10 µM (K562) was 37%, the inhibition of growth at 10 µM (MOLT-4) was 58% and the inhibition of growth at 10 µM (RPMI-8226) was 54%. For the same compound, the inhibition of growth at 10 µM (SR) was 35%, the inhibition of growth at 10 µM (A549) was 21% and the inhibition of growth at 10 µM (EKVX) was 27%. The inhibition of growth at 10 µM (NCI-H226) was 16%, the inhibition of growth at 10 µM (NCI-H23) was 13% and the inhibition of growth at 10 µM (NCI-H460) was 11%. For the same compound, the inhibition of growth at 10 µM (NCI-H522) was 37%, the inhibition of growth at 10 µM (HCT-116) was 26% and the inhibition of growth at 10 µM (HCT-15) was 13%. For the same compound, the inhibition of growth at 10 µM (HT-29) was 19%, the inhibition of growth at 10 µM (KM12) was 21% and the inhibition of growth at 10 µM (SF-295) was 28%. The inhibition of growth at 10 µM (SF-539) was 11%, the inhibition of growth at 10 µM (LOX IMVI) was 10% and the inhibition of growth at 10 µM (M14) was 16%. It also gave an inhibition of growth at 10 µM (MDA-MB-435) of 15%, an inhibition of growth at 10 µM (SK-MEL-28) of 11% and an inhibition of growth at 10 µM (SK-MEL-5) of 41%. For the same compound, the inhibition of growth at 10 µM (UACC-257) was 13%, the inhibition of growth at 10 µM (UACC-62) was 29% and the inhibition of growth at 10 µM (IGROV-1) was 19%. It also gave an inhibition of growth at 10 µM (OVCAR-4) of 20%, an inhibition of growth at 10 µM (OVCAR-8) of 31% and an inhibition of growth at 10 µM (NCI/ADR-RES) of 27%. For the same compound, the inhibition of growth at 10 µM (A498) was 61%, the inhibition of growth at 10 µM (ACHN) was 15% and the inhibition of growth at 10 µM (CAKI-1) was 16%. The inhibition of growth at 10 µM (SN12C) was 17%, the inhibition of growth at 10 µM (UO-31) was 41% and the inhibition of growth at 10 µM (PC-3) was 33%. The inhibition of growth at 10 µM (DU-145) was 16%, the inhibition of growth at 10 µM (MCF7 [3]) was 22% and the inhibition of growth at 10 µM (MDA-MB-231) was 22%. It also gave an inhibition of growth at 10 µM (BT-549) of 28%, an inhibition of growth at 10 µM (T47D [4]) of 60% and an inhibition of growth at 10 µM (MDA-MB-468) of 51%. It also gave an IC50 (MCF7 [5]) of 16.5 µM, an IC50 (T47D [6]) of 8.09 µM and an inhibition at 10 µM (MCF7 [7]) of 80%.
